What was measured:
[1] = tested on: baboon smooth muscle cells; assay: Inhibition of PDGF mitogenic activity on baboon smooth muscle cells by non-peptidic antagonists; type: cell-based
rat smooth muscle cells = assay: Inhibition of PDGF-BB binding to rat smooth muscle cells

| Compound | inhibition of PDGF mitogenic activity on baboon smooth muscle cells [1] | inhibition of PDGF mitogenic activity on baboon smooth muscle cells in the presence of heparin ([1]; with heparin) | inhibition of binding of PDGF-BB to rat smooth muscle cells (rat smooth muscle cells) | inhibition of PDGF-BB mitogenic activity on baboon smooth muscle cells [1] |
| --- | --- | --- | --- | --- |
| CC1CCCC=CC2CC(O)CC2C(O)C=CC(=O)O1 (stereo not shown) [Brefeldin A, 1,6,7,8,9,11a,12,13,14,14a-Decahydro-1,13-dihydroxy-6-methyl-4H-cyclopent[f]oxacyclotridecin-4-one] | inhibit | enhanced |  |  |
| O=C(/C=C/c1ccccc1)OC1C=CC2COC(=O)C2C1C(=O)O (stereo not shown) [92-0825] |  |  | inhibit binding | inhibit PDGF-BB mitogenic activity |
